According to ChEMBL document CHEMBL6134788, “Development of naphthalimide hydrazide derivatives as potent antibacterial agents against carbapenem-resistant A. baumannii” (RSC Med Chem, 2024):
≈ marks a conversion by molar mass, not a printed value.

Key:
Format in all cases: functional
Conditions in all cases: time 16-18 hrs, read-out: MIC100
Acinetobacter baumannii = assay: Antibacterial activity against carbapenem-resistant Acinetobacter baumannii BAA 1605 assessed as inhibition of bacterial growth incubated for 16 to 18 hrs by CLSI protocol based method
Staphylococcus aureus = assay: Antibacterial activity against Staphylococcus aureus ATCC 29213 assessed as inhibition of bacterial growth incubated for 16 to 18 hrs by CLSI protocol based method
Klebsiella pneumoniae = assay: Antibacterial activity against Klebsiella pneumoniae BAA 1705 assessed as inhibition of bacterial growth incubated for 16 to 18 hrs by CLSI protocol based method
Pseudomonas aeruginosa = assay: Antibacterial activity against Pseudomonas aeruginosa ATCC 27853 assessed as inhibition of bacterial growth incubated for 16 to 18 hrs by CLSI protocol based method
Escherichia coli = assay: Antibacterial activity against Escherichia coli ATCC 25922 assessed as inhibition of bacterial growth incubated for 16 to 18 hrs by CLSI protocol based method

O=C(CCN1C(=O)c2cccc3cccc(c23)C1=O)NNc1cccc(Br)c1
MIC (Acinetobacter baumannii): > 64 µg/mL | MIC (Staphylococcus aureus): > 64 µg/mL | MIC (Klebsiella pneumoniae): > 64 µg/mL | MIC (Pseudomonas aeruginosa): > 64 µg/mL | MIC (Escherichia coli): > 64 µg/mL

N#Cc1ccc(NNC(=O)CCCN2C(=O)c3cccc4cccc(c34)C2=O)cc1
MIC (Acinetobacter baumannii): 2 µg/mL (≈ 5.02 µM) | MIC (Staphylococcus aureus): > 64 µg/mL | MIC (Klebsiella pneumoniae): > 64 µg/mL | MIC (Pseudomonas aeruginosa): > 64 µg/mL | MIC (Escherichia coli): > 64 µg/mL

O=C(CCN1C(=O)c2cccc3cccc(c23)C1=O)NNc1ccccc1
MIC (Acinetobacter baumannii): 8 µg/mL (≈ 22.3 µM) | MIC (Staphylococcus aureus): > 64 µg/mL | MIC (Klebsiella pneumoniae): > 64 µg/mL | MIC (Pseudomonas aeruginosa): > 64 µg/mL | MIC (Escherichia coli): > 64 µg/mL

O=C(CCCN1C(=O)c2cccc3cccc(c23)C1=O)NNc1ccccc1
MIC (Acinetobacter baumannii): 4 µg/mL (≈ 10.7 µM) | MIC (Staphylococcus aureus): > 64 µg/mL | MIC (Klebsiella pneumoniae): > 64 µg/mL | MIC (Pseudomonas aeruginosa): > 64 µg/mL | MIC (Escherichia coli): > 64 µg/mL

N#Cc1ccc(NNC(=O)[C@@H](Cc2ccccc2)N2C(=O)c3cccc4cccc(c34)C2=O)cc1
MIC (Acinetobacter baumannii): 16 µg/mL (≈ 34.7 µM) | MIC (Staphylococcus aureus): > 64 µg/mL | MIC (Klebsiella pneumoniae): > 64 µg/mL | MIC (Pseudomonas aeruginosa): > 64 µg/mL | MIC (Escherichia coli): > 64 µg/mL

O=C(CCN1C(=O)c2cccc3cccc(c23)C1=O)NNc1cc(F)cc(F)c1
MIC (Acinetobacter baumannii): > 64 µg/mL | MIC (Staphylococcus aureus): > 64 µg/mL | MIC (Klebsiella pneumoniae): > 64 µg/mL | MIC (Pseudomonas aeruginosa): > 64 µg/mL | MIC (Escherichia coli): > 64 µg/mL

O=C(CCCCCN1C(=O)c2cccc3cccc(c23)C1=O)NNc1ccccc1
MIC (Acinetobacter baumannii): 8 µg/mL (≈ 19.9 µM) | MIC (Staphylococcus aureus): > 64 µg/mL | MIC (Klebsiella pneumoniae): > 64 µg/mL | MIC (Pseudomonas aeruginosa): > 64 µg/mL | MIC (Escherichia coli): > 64 µg/mL

O=C(NNc1ccc(Cl)cc1)[C@@H](Cc1ccccc1)N1C(=O)c2cccc3cccc(c23)C1=O
MIC (Acinetobacter baumannii): 4 µg/mL (≈ 8.51 µM) | MIC (Staphylococcus aureus): > 64 µg/mL | MIC (Klebsiella pneumoniae): > 64 µg/mL | MIC (Pseudomonas aeruginosa): > 64 µg/mL | MIC (Escherichia coli): > 64 µg/mL

N#Cc1ccc(NNC(=O)CN2C(=O)c3cccc4cccc(c34)C2=O)cc1
MIC (Acinetobacter baumannii): 4 µg/mL (≈ 10.8 µM) | MIC (Staphylococcus aureus): > 64 µg/mL | MIC (Klebsiella pneumoniae): > 64 µg/mL | MIC (Pseudomonas aeruginosa): > 64 µg/mL | MIC (Escherichia coli): > 64 µg/mL

N#Cc1ccc(NNC(=O)CCN2C(=O)c3cccc4c(Br)ccc(c34)C2=O)cc1
MIC (Acinetobacter baumannii): 4 µg/mL (≈ 8.63 µM) | MIC (Staphylococcus aureus): > 64 µg/mL | MIC (Klebsiella pneumoniae): > 64 µg/mL | MIC (Pseudomonas aeruginosa): > 64 µg/mL | MIC (Escherichia coli): > 64 µg/mL

O=C(CCN1C(=O)c2cccc3c(Br)ccc(c23)C1=O)NNc1ccc(Br)cc1
MIC (Acinetobacter baumannii): 4 µg/mL (≈ 7.73 µM) | MIC (Staphylococcus aureus): > 64 µg/mL | MIC (Klebsiella pneumoniae): > 64 µg/mL | MIC (Pseudomonas aeruginosa): > 64 µg/mL | MIC (Escherichia coli): > 64 µg/mL

O=C(CCN1C(=O)c2cccc3cccc(c23)C1=O)NNc1ccc([N+](=O)[O-])cc1
MIC (Acinetobacter baumannii): 4 µg/mL (≈ 9.89 µM) | MIC (Staphylococcus aureus): > 64 µg/mL | MIC (Klebsiella pneumoniae): > 64 µg/mL | MIC (Pseudomonas aeruginosa): > 64 µg/mL | MIC (Escherichia coli): > 64 µg/mL

CO[C@H]1/C=C/O[C@@]2(C)Oc3c(C)c(O)c4c(O)c(c(/C=N/N5CCN(C)CC5)c(O)c4c3C2=O)NC(=O)/C(C)=C\C=C\[C@H](C)[C@H](O)[C@@H](C)[C@@H](O)[C@@H](C)[C@H](OC(C)=O)[C@@H]1C [RIFAMPIN]
MIC (Acinetobacter baumannii): 4 µg/mL (≈ 4.86 µM)

O=C(CCN1C(=O)c2cccc3cccc(c23)C1=O)NNc1cccc(F)c1
MIC (Acinetobacter baumannii): 1 µg/mL (≈ 2.65 µM) | MIC (Staphylococcus aureus): > 64 µg/mL | MIC (Klebsiella pneumoniae): > 64 µg/mL | MIC (Pseudomonas aeruginosa): > 64 µg/mL | MIC (Escherichia coli): > 64 µg/mL
